Reference: a melting point compilation (Tetko et al.; mined from patent text by program, amines drawn as free bases though some values may be those of a salt)

SMILES | melting point
CCSc1cc(C)nc(SCC)c1NC(=O)CCCCCCCCSc1nc2cccc(C(F)(F)F)c2o1 | 115 to 116 °C
NC(=O)N(O)CCc1ccc(Sc2cccc(C(F)(F)F)c2)s1 | 124 to 126 °C
S=C(NCc1cccnc1)NC(Cc1cccc2ccccc12)=Nc1ccccc1 | 162 to 163 °C
Cc1cc(C)n(-c2ncc(Cl)c(NC3CCCCC3)n2)n1 | 90 to 99 °C
COc1cc(C(=O)c2c(C)nn(C)c2O)cc(OC)c1OC | 189 to 191 °C
COc1ccc(C=CC(=O)c2ccc(O)cc2)cc1OC | 193 to 198 °C
CCOc1ccc2c(c1)n(C1CCOCC1)c(=O)n2S(=O)(=O)c1ccc(C(=O)OC)cc1OC | 165 °C
CSc1ccc(N2CCN(CCCOc3ccc(C4=NCCO4)cc3)CC2)nn1 | 163 °C
CNc1ccc(OCCN2CCC(Cc3ccc(C)cc3)CC2)cc1 | 136 to 137 °C
CCOC(=O)c1cccc2c1Cc1c-2[nH]c2ccc(Br)cc12 | 198 to 200 °C
O=C(O)c1cn(-c2nnc(C(F)(F)F)s2)c2cc(F)c(F)cc2c1=O | 272 to 276 °C
CC(C)n1c(/C=C/C(O)CC(O)CC(=O)OC(C)(C)C)c(-c2ccc(F)cc2)c2ncccc21 (stereo unspecified) | 62 to 65 °C
CC(=Cc1c[nH]c2ccc3c(c12)CC(O)CO3)[N+](=O)[O-] (stereo unspecified) | 240 to 242 °C
O=C1N(C(c2ccccc2)c2ccccc2)c2ccc(F)cc2C12COc1cc3c(cc12)CCO3 (stereo unspecified) | 228 to 229 °C
Fc1ccccc1-c1cnc2nncn2n1 | 193 to 196 °C
CCCO[C@@H]1C[C@@H](C(=O)NC)N(S(=O)(=O)c2ccc(Cl)c(CBr)c2Cl)C1 | 62 °C
N#Cc1c(N2CCN(C(=O)c3cccs3)CC2)c2sccc2n(CC(=O)c2ccccc2)c1=O | 300 °C
CC(C)(C)OC(=O)Cn1c(=O)c(-c2c(Cl)cccc2Cl)cc2cnc(N)nc21 | 171 to 173 °C
CCCCc1nn2cc(CC)nc2n1Cc1ccc(-c2ccccc2-c2nnn[nH]2)cc1 | > 100 °C
COc1cc2c(cc1OC)C(c1c(Cl)cccc1Cl)NC(=O)C2 (stereo unspecified) | 228 to 229 °C
O=C1c2ccccc2C(=O)N1CCCCCCN1CCC(c2nc(-c3ccncc3)c(-c3ccc(Cl)c(Cl)c3)[nH]2)CC1 | 129 to 134 °C
COC(=O)C=Cc1ccc2ccccc2n1 | 85 to 86 °C
N#CCC(=O)c1ccc(C(F)(F)F)cc1[N+](=O)[O-] | 79.5 to 80.5 °C
O=c1oc2c(-c3ccccc3)cccc2c(OCCN2CCOCC2)c1-c1ccccc1 | 106 to 108 °C
Cc1ccc(NC(=O)c2ccc3ncccc3c2)cc1NC(=O)c1cccc(OCCN2CCOCC2)c1 | 216 to 217 °C
N#CN1CCC2(CC1)C(=O)c1cc(Cl)ccc1Sc1ccccc12 | 142 °C

SMILES | melting point
COC(=O)c1ccc(NC(=O)c2cc(C(C)C)c(C(C)C)s2)cc1Cl | 153 to 154 °C
CCCNC(=O)CCc1ccc2c(c1)c(Cc1ccc(C(=O)O)cc1OC)cn2CCC | 68 to 78 °C
CSC(SC)=C(C#N)C(=O)N1CCOCC1 | 55 to 57 °C
CC(C)Cc1nn(C)c(=O)c2cc(Cc3cccc4ccccc34)oc12 | 73 to 75 °C
O=C(Nc1cccc(Nc2ccc3c(c2)NC(=O)C3=Cc2ccc[nH]2)c1)Nc1cc(F)c(F)cc1F | 224 to 226 °C
N#CCCCSc1nccc(NC(=S)NCC(F)(F)F)n1 | 125 to 126 °C
CCOc1cc(-c2nnc3c4ccccc4c(OCc4ncnn4C)nn23)no1 | 223 to 225 °C
Cc1ccnc(C(O)c2ccc(N)cc2)c1 (stereo unspecified) | 156 to 158 °C
OC(CCl)(CC(Cl)(Cl)Cl)c1cc(Cl)cc(Cl)c1 (stereo unspecified) | 69 to 70.5 °C
O=C1C=C(O[C@@H]2c3cc(C(F)(F)C(F)(F)F)ccc3OC(CF)(CF)[C@H]2O)CC1 (relative stereo) | 165 to 167 °C
CCCCOC(=O)CCCOc1ccc(F)c(C(N)=O)c1F | 53 to 55 °C
Cc1nc(N2CCC(CC3CC3)C2=O)sc1C(=O)NCc1ccc(F)cc1 (stereo unspecified) | 153 to 155 °C
O=c1[nH]c2cc(C(F)(F)F)c(Cl)c(Cl)c2[nH]c1=O | > 250 °C
Nc1nc(OCOC(=O)C2CCCC2)ncc1F | 101 to 104 °C
NC(=O)NC[C@@H]1CCCc2cc(Sc3cccc(F)c3)ccc21 | 115 to 116 °C
CC12CC(N3CCC(=O)CC3)C(O)CC1CCC1C2CCC2(C)C(O)C(N3CCCCC3)CC12 (stereo unspecified) | 205 to 206 °C
Cc1c(NCc2ccccc2)cc2c(c1C)OCC2c1ccc(C(C)C)cc1 (stereo unspecified) | 108 to 109 °C
O=C(O)CCn1nc2ccc(S)nn2c1=O | 174 to 176 °C
CCCc1nc(C)c2nnc3cc(OC)ccc3n12 | 159 to 162 °C
c1ccc2c3c(cnc2c1)OCCN3 | 175 to 176 °C
CCCCCNC(=O)CCCO | 41 to 43 °C
O=C(O)CC=CC12CC(c3ccccc31)c1ccccc12 | 166 to 167 °C
NC(=O)c1ccc2c(c1-c1c(C(N)=O)ccc3c1OCO3)OCO2 | 249 to 250 °C
Cn1cc(C2=C(c3c4n(c5ccccc35)CCC(C#N)C4)C(=O)OC2=O)c2ccccc21 (stereo unspecified) | 309 to 311 °C
CCC1(CC)C(=O)c2cc(OC)c(C)c(C)c2C1=O | 80 to 81 °C
COc1ccc(C2=NNC(=O)CC2c2ccccc2)cc1 (stereo unspecified) | 176 to 177 °C

SMILES | melting point
COc1cc2c(cc1NN)oc1ccccc12 | 113 to 115 °C
Cc1ccc(=O)n(-c2cc(-c3ccnc(Nc4cccc(Cl)c4)n3)ccn2)n1 | 187 to 189 °C
Cc1c(C)c2c(c(C)c1N)CC(C)(CN1CC=C(c3c[nH]c4ccccc34)CC1)O2 (stereo unspecified) | 169 to 173 °C
Nc1ccc(Sc2c(NCc3ccccc3)cc(C(=O)O)cc2S(N)(=O)=O)cc1 | 254 to 256 °C
Cc1cc2c(-c3ccccc3C)c(C(=O)O)c(=O)n(C)c2cc1Cl | 204 to 205 °C
CCCCCCCCCCCCc1ccc(C(OC(C)=O)C(COC(C)=O)NC(C)=O)s1 (stereo unspecified) | 105 to 107 °C
O=C(O)C1CCc2[nH]c3ccc(Cl)cc3c2C1 (stereo unspecified) | 181 to 183 °C
O=C1OC(=O)c2c1c1c3ccccc3[nH]c1c1c2c2cccnc2n1C1OC(CO)C(O)C(O)C1O (stereo unspecified) | > 300 °C
COC(=O)C(O)P(C)(C)=O (stereo unspecified) | 84 to 86 °C
CC(C)(C)NC(=O)[C@@H]1C[C@H](Br)CN1C(=O)OC(C)(C)C | 159 to 160 °C
O=[N+]([O-])c1ccc(N2CCN(c3ccc(O)cc3)CC2)cc1 | 260 °C
CC(=O)OCC1OC(n2cc(C(Br)=CI)c(=O)[nH]c2=O)CC1OC(C)=O (stereo unspecified) | 82 to 84 °C
NC(Cc1c[nH]c2cc(Cl)cc(Cl)c12)C(=O)OCCC(=O)OCc1ccccc1 (stereo unspecified) | 151 to 153 °C
Cc1ccc2c(c1)c(C)c(C(=O)OCc1ccccc1)n2CCC#N | 71 °C
COC(=O)c1c(C)sc2cc(CCn3ccnc3)ccc12 | 90 to 92 °C
N=C(Nc1ccc(Cl)cc1)Nc1ncccc1OCc1ccccc1 | 170 to 172 °C
Cc1ccc(C(=O)NNC(=O)c2ccccc2Cl)cc1 | 204 to 206 °C
CC(C)(O)Cc1cccc(O)c1 | 91 to 94 °C
CC(O)Cn1c(COCc2ccccc2)nc(C(C)C)c1Sc1cc(Cl)cc(Cl)c1 (stereo unspecified) | 155 to 157 °C
CC(C)(O)c1ccc(S(N)(=O)=O)o1 | 116 to 118 °C
CC(C)(C)OC(=O)N1CC2C(CCC3(C)C(C(=O)O)CCC23)C2(C)CCC(=O)C=C12 (stereo unspecified) | 215 to 216 °C
CCCC(=Cc1cccs1)[N+](=O)[O-] | 25 to 25.5 °C
CC(=O)c1cc(C(=O)OCc2ccco2)c(C2=NC(C)(C(C)C)C(=O)N2)nc1C (stereo unspecified) | 133 to 136 °C
CCNc1cc(Cl)c(C(F)(F)F)cc1[N+](=O)[O-] | 92.5 to 94 °C
CC(=O)C1CCCNC1=O (stereo unspecified) | 101 to 103 °C
COc1ccc(C(=O)/C(Cc2cc(OC)c(OC)c(OC)c2)=C(/C(=O)O)c2ccc3c(c2)OCO3)cc1 | 192 to 193 °C

SMILES | melting point
CC(C)(C)C(NC(=O)c1cccc(F)c1)Nc1c(Nc2cccnc2Cl)c(=O)c1=O (stereo unspecified) | 228 to 229 °C
COc1cc(C2C3=C(COC3=O)N(Cc3ccc([N+](=O)[O-])cc3)c3cc4c(cc32)OCO4)cc(OC)c1OC (stereo unspecified) | 240 °C
CC(=O)c1cc(C(N)=O)c(=O)[nH]c1C | > 320 °C
CCCCCCCCCCOc1ccc(-c2ccc(CCCCC(C)OC(C)=O)cc2)cc1 (stereo unspecified) | 75 to 76 °C
CC(C)Cc1ccc(C(C)C(=O)OC2OC(=O)c3ccccc32)cc1 (stereo unspecified) | 62 to 65 °C
C=C[C@@H]1CCC(=O)N1C(=O)[C@H](Cc1ccccc1)O[Si](C)(C)C(C)(C)C | 92 to 93.5 °C
Nc1nc2[nH]c3ccccc3c2c(=O)[nH]1 | > 340 °C
CC(C)c1cccc(C(C)C)c1NC(=S)NC1CCCC(C(F)(F)F)C1 (stereo unspecified) | 67 to 75 °C
NS(=O)(=O)c1ccc(-n2nc(CC(=O)O)cc2-c2ccc(Cl)cc2)cc1 | 120 to 122 °C
COc1ccc(-c2cncc(OC3SCC(O)C(O)C3O)c2)cc1 (stereo unspecified) | 216 °C
COC(=O)c1c(C)nc(C)c(C(=O)OC)c1-c1ccccc1[N+](=O)[O-] | 99 to 101 °C
O=C1Nc2ccccc2C12COc1cc(OC(F)(F)F)ccc12 (stereo unspecified) | 180 to 182 °C
COc1cc(N)c(Cl)cc1C(=O)NCC1CCN(CCCCC(=O)c2ccccc2)CC1 | 100 to 102 °C
CC(C)[C@H](NC(=O)[C@H](Cc1ccccc1)NC(=O)c1ccccc1)C(=O)O | 191 °C
N#CCOc1ccccc1S(N)(=O)=O | 184 to 185 °C
CC(=O)OC1C(N2CCCCC2)CC2C3CCC4CCC(=O)CC4(C)C3CCC21C (stereo unspecified) | 165 to 167 °C
CN(C)CCCn1c2c(c3cc(C(=O)O)ccc31)CCCCCC2 | 149 to 150 °C
COc1ccc2c(N)cccc2c1C(F)(F)F | 120 °C
CC1(CF)C=C(C#N)c2cc([N+](=O)[O-])ccc2O1 (stereo unspecified) | 169 to 171 °C
COC(=O)c1ccc(CBr)cc1O | 73 to 75 °C
CCc1cc(C(=O)c2ccccc2F)c(-n2c(C)nnc2CNC(=O)c2cc3ccccc3[nH]2)s1 | 255 to 256 °C
Brc1cccc(Sc2ccc3ccccc3c2)c1 | 68 to 70 °C
Cc1ccn2cc(CCc3ccc4nc(N)oc4c3)nc2c1 | 262 to 264 °C
